Experiments:
Assay type in all cases: in vivo
[1] = system: Tobacco Budworm [Heliothis virescens (Fabricius)] eggs; assay: Tobacco budworm egg test; details: 2-day old eggs, percent in solution
Outline: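 Paper-towel patches of 2-day-old eggs dipped in acetone solutions of compound (0.1% downward), held on larval rearing medium at 78° F. Mortality scored once all control eggs had hatched and larvae were feeding; LC50 from dosage-mortality curves, expressed as percent compound in solution.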

[2] = system: Aster Leafhopper [Macrosteles fascifrens (Stal)]; assay: Aster leafhopper insecticidal test; details: adults/nymphs, percent in solution; 48 hours
Outline: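 LC50 values, given as percent of test compound in the dip solution, were derived from dosage-mortality curves over concentrations from 0.05% downward. Mortality was counted 48 hours after ten leafhopper adults/nymphs were enclosed on treated seedlings. The seedlings were oats, about 10 cm tall, briefly dipped in 50-50 acetone-water.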

[3] = system: Cabbage Looper [Trichoplusia ni (Hubner)]; assay: Cabbage looper insecticidal test; details: second-instar larvae, percent in solution; 3-5 days
Outline: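 Squash cotyledons dipped 2-3 s in compound in 50-50 acetone-water, dried, then infested with 5 second-instar larvae and held at high humidity. Mortality scored after 3-5 days at concentrations from 0.1% downward. LC50 from dosage-mortality curves, expressed as percent compound in solution.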

[4] = system: Housefly [Musca domestica]; assay: Housefly insecticidal test; details: μg per 25 female flies; mortality after 48 hours
Outline: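 LC50, as μg compound per 25 female flies, comes from dosage-mortality curves with doses from 100 μg downward. Residues were made by evaporating acetone plus 0.01% peanut oil in dishes, onto which 1-2-day-old females were caged; deaths were counted after 48 hours.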

[5] = system: Maize weevil [Sitophilus Zeamais (Motschulsky)]; assay: Maize weevil insecticidal test; details: adult weevils, percent in solution; 48 hours
Outline: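 LC50, in percent of compound in solution, was derived from dosage-mortality curves after 48 h at about 25 °C. Ten adult weevils per container fed on four corn seeds briefly immersed in acetone:water (50:50) solutions of up to 0.01% and dried.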

Compound | LC50, TBW, E (TBW-E) [1] [%] | LC50, LH [2] [%] | LC50, CL [3] [%] | LC50, HF [4] [µg] | LC50, MW [5] [%]
CC(C)C(=Nc1ccc(Br)cc1F)OCc1cccc(Oc2ccc(F)cc2)c1 [Compound 351] | > 0.1 | > 0.05 | 0.0007 | 26 | > 0.01
Cc1ccc(N=C(OCc2ccc(F)c(Oc3ccc(F)cc3)c2)C(C)C)cc1Cl [Compound 357] | > 0.1 | < 0.05 | > 0.1 | < 100 | 0.01
CC(C)C(=Nc1ccc(F)c(Cl)c1)OCc1cccc(OCc2ccc(F)cc2)c1 [Compound 490] | > 0.1 | > 0.05 | 0.0045 | > 100 | > 0.01
CC(C)(F)C(=Nc1ccc(F)c(Cl)c1)OCc1cc(Oc2ccc(F)cc2)ccc1F [Compound 316] | > 0.1 | > 0.05 | 0.0015 | 100 | > 0.01
CCC(=Nc1ccc(Cl)cc1)OCc1cccc(Oc2ccccc2)c1 [Compound 11] | > 0.1 | > 0.05 | 0.025 | 6 | > 0.01
CC(C)C(=Nc1ccc2c(c1)OCO2)OCc1cc(Oc2ccc(F)cc2)ccn1 [Compound 515] | > 0.1 | > 0.05 | 0.0015 | 28 | > 0.01
Cc1cc(N=C(OCc2ccc(F)c(Oc3ccccc3)c2)C(C)C)ccc1Br [Compound 358] | > 0.1 | < 0.05 | > 0.1 | < 100 | > 0.01
Cc1cc(N=C(OCc2ccc(F)c(Oc3ccc(F)cc3)c2)C(C)C)ccc1Br [Compound 359] | 0.023 | 0.05 | > 0.1 | < 100 | > 0.01
CC(C)C(=Nc1ccc(F)c(Cl)c1)OCc1cccc(Oc2ccc(F)c(F)c2)c1 [Compound 217] | 0.015 | > 0.05 | 0.00006 | 8 | 0.0084
CC(C)C(=Nc1ccc(F)c(Cl)c1)OCc1cccc(Oc2ccccn2)c1 [Compound 549] | > 0.1 | > 0.05 | > 0.1 | < 100 | > 0.01
Cc1cccc(N=C(OCc2cccc(Oc3ccccc3)c2)C(C)C)c1 [Compound 155] | 0.06 | > 0.05 | 0.004 | 9 | > 0.01
C#CC(OC(=Nc1ccc(F)c(Cl)c1)C(C)C)c1cccc(Oc2ccccc2)c1 (centres unmarked) [Compound 533, N-(3-chloro-4-fluorophenyl)-O-[1-(3-phenoxyphenyl)-2-propyn-1-yl]isobutyrimidate] | > 0.1 | > 0.05 | > 0.1 | 60 | > 0.01
CC(C)C(=Nc1ccc(F)c(Cl)c1)OCc1cccc(Oc2ccc(Br)cc2)n1 [Compound 492] | 0.015 | > 0.05 | 0.00028 | 15 | > 0.01
CC(C)C(=Nc1ccccc1Cl)OCc1cccc(Oc2ccccc2)c1 [Compound 17] | > 0.1 | > 0.05 | 0.03 | 75 | > 0.01
CC(C)C(=Nc1ccc(F)c(Cl)c1)OCC#CCOc1ccccc1 [Compound 534] | > 0.1 | > 0.05 | < 0.1 | > 100 | > 0.01
CC(C)C(=Nc1ccc(F)c(Cl)c1)OCc1cccc(Cc2ccccc2)c1 [Compound 537] | > 0.1 | > 0.05 | > 0.1 | 20 | > 0.01
CC(C)C(=Nc1ccc(F)cc1)OCCc1cccc(Oc2ccccc2)c1 [Compound 456] | > 0.05 | > 0.05 | 0.017 | > 100 | > 0.01

Compound | LC50, TBW, E (TBW-E) [1] [%] | LC50, LH [2] [%] | LC50, CL [3] [%] | LC50, HF [4] [µg] | LC50, MW [5] [%]
Cc1ccc(N=C(OCc2ccc(F)c(Oc3ccccc3)c2)C(C)C)cc1F [Compound 354] | 0.018 | < 0.05 | > 0.1 | < 100 | 0.0068
CSc1ccc(Oc2cccc(COC(=Nc3ccc(F)c(Cl)c3)C(C)C)c2)cc1 [Compound 256] | 0.1 | > 0.05 | 0.007 | > 100 | > 0.01
CC(C)C(=Nc1ccc(Cl)c(C(F)(F)F)c1)OCc1cccc(Oc2ccc(F)cc2)c1 [Compound 193] | > 0.1 | 0.001 | 0.00075 | 100 | > 0.01
CC(C)C(=Nc1ccc(-c2ccccc2)cc1)OCc1cccc(Oc2ccccc2)c1 [Compound 186] | > 0.1 | > 0.05 | 0.008 | > 100 | > 0.01
CC(C)C(=Nc1ccc(F)c(Cl)c1)OCc1cccc(Oc2ccccc2F)c1 [Compound 119] | 0.048 | 0.0008 | 0.0007 | 27 | > 0.01
CC(C)C(=Nc1cc(Cl)ccc1Cl)OCc1cccc(Oc2ccccc2)c1 [Compound 13] | > 0.1 | > 0.05 | 0.014 | > 100 | > 0.01
COc1ccc(N=C(OCc2cccc(Oc3ccccc3)c2)C(C)C)cc1 [Compound 160] | 0.09 | 0.05 | 0.005 | 7 | > 0.01
CC(C)C(=Nc1ccc(F)c(Cl)c1)OCc1cc(Oc2ccc(Cl)cc2)ccn1 [Compound 516] | > 0.1 | > 0.05 | 0.008 | > 100 | > 0.01
CC(C)C(=Nc1ccc2c(c1)OCO2)OCc1cccc(Oc2ccc(Cl)cc2)c1 [Compound 240] | 0.04 | > 0.05 | 0.0003 | 14 | > 0.01
CC(C)C(=Nc1ccc2c(c1)OCO2)OCc1cccc(Oc2ccc(Cl)cc2)n1 [Compound 466] | > 0.1 | > 0.05 | 0.0008 | 13 | 0.01
CC(C)C(=Nc1ccc2c(c1)OCO2)OCc1ccc(F)c(Oc2ccc(Cl)cc2)c1 [Compound 366] | 0.012 | 0.05 | 0.0007 | < 100 | > 0.01
Cc1ccc(N=C(OCc2ccc(F)c(Oc3ccccc3)c2)C(C)C)cc1Cl [Compound 356] | 0.025 | < 0.05 | > 0.1 | < 100 | > 0.01
CC(C)C(=Nc1ccc(Cl)c(Cl)c1)OCc1cccc(Nc2ccc(F)cc2)c1 [Compound 514] | > 0.1 | > 0.05 | 0.008 | > 100 | > 0.01
C=CCOc1cccc(COC(=Nc2ccc(F)c(Cl)c2)C(C)C)c1 [Compound 479] | > 0.1 | > 0.05 | 0.013 | 66 | > 0.01
C#CCc1c(F)c(F)c(COC(=Nc2ccc3c(c2)OCO3)C(C)C)c(F)c1F [Compound 547] | 0.05 | < 0.05 | 0.0005 | < 100 | > 0.01
Cc1ccc(N=C(OCc2cccc(Oc3ccccc3)c2)C(C)C)cc1 [Compound 156] | 0.05 | > 0.05 | 0.004 | 10 | > 0.01
CC(C)C(=Nc1ccc2c(c1)OCO2)OCc1cccc(Oc2ccc(Cl)cn2)c1 [Compound 532] | > 0.1 | > 0.05 | < 0.1 | > 100 | > 0.01
